Counter-ions that a name gives are not always drawn.
Row | SMILES | melting point [°C]
1 | CCCN1CCC(O)(c2ccc(F)c(F)c2)C1 (centres unmarked) (as salt: fumaric acid salt) [Example 28] | 128 to 129
2 | CCN1CCC(O)(c2ccc(F)c(F)c2)C1 (centres unmarked) (as salt: fumaric acid salt) | 136 to 137
3 | CCCCN1CCC(O)(c2cccc(F)c2F)C1 (centres unmarked) (as salt: oxalic acid salt) [Example 38] | 155.3
4 | CCN1CCC(O)(c2cccc(Cl)c2F)C1 (centres unmarked) (as salt: oxalic acid salt) [Example 35] | 71 to 74
5 | CCN1CCC(O)(c2cc(F)cc(Cl)c2)C1 (centres unmarked) (as salt: oxalic acid salt) [Example 67] | 113 to 114
6 | CCCN1CCC(O)(c2cc(F)cc(F)c2)C1 (centres unmarked) (as salt: oxalic acid salt) [Example 29] | 117 to 118
7 | CCN1CCC(O)(c2ccc(Cl)c(Cl)c2)C1 (centres unmarked) (as salt: fumaric acid salt) [Example 10, 3-(3,4-DICHLOROPHENYL)-1-ETHYLPYRROLIDIN-3-OL] | 184 to 185
8 | CN1CCC(O)(c2cc(F)cc(F)c2)C1 (centres unmarked) (as salt: oxalic acid salt) [Example 47] | 134 to 135
9 | CC(C)CN1CCC(O)(c2cccc(F)c2F)C1 (centres unmarked) (as salt: oxalic acid salt) [Example 39] | 176
10 | CCCN1CCC(O)(c2cccc(F)c2F)C1 (centres unmarked) (as salt: fumaric acid salt) [Example 34] | 95 to 98
11 | CCCN1CCC(O)(c2ccc(F)c(Cl)c2)C1 (centres unmarked) (as salt: fumaric acid salt) | 157.9
12 | CCCN1CCC(O)(c2cc(F)cc(F)c2)C1 (centres unmarked) (as salt: oxalic acid salt) [Example 30] | 118 to 119
13 | CC(C)CN1CCC(O)(c2cccc(F)c2F)C1 (centres unmarked) (as salt: oxalic acid salt) [Example 61] | 168 to 169
14 | CCN1CCC(O)(c2cc(F)cc(Cl)c2)C1 (centres unmarked) (as salt: oxalic acid salt) [Example 5, 3-(3-CHLORO-5-FLUOROPHENYL)-1-ETHYLPYRROLIDIN-3-OL] | 169 to 170
15 | C=CCN1CCC(O)(c2cc(F)cc(F)c2)C1 (centres unmarked) (as salt: oxalic acid salt) [Example 44] | 102 to 103
16 | CN1CCC(O)(c2cccc(Cl)c2F)C1 (centres unmarked) (as salt: oxalic acid salt) | 123 to 125
17 | C=CCN1CCC(O)(c2cccc(F)c2F)C1 (centres unmarked) (as salt: oxalic acid salt) [Example 41] | 120
18 | CCCN1CCC(O)(c2cc(F)cc(Cl)c2)C1 (centres unmarked) (as salt: oxalic acid salt) | 157.2
19 | C=CCN1CCC(O)(c2cccc(F)c2F)C1 (centres unmarked) (as salt: oxalic acid salt) [Example 62] | 119 to 120
20 | OC1(c2cccc(F)c2F)CCN(CCC(F)(F)F)C1 (single isomer, unassigned; (+)) (as salt: oxalic acid salt) [Example 63, (+)-3-(2,3-DIFLUOROPHENYL)-1-(3,3,3-TRIFLUOROPROPYL)PYRROLIDIN-3-OL] | 144 to 145

Row | SMILES | melting point [°C]
21 | CC(C)CN1CCC(O)(c2cc(F)cc(F)c2)C1 (centres unmarked) (as salt: oxalic acid salt) [Example 53] | 164 to 165
22 | Fc1cccc(C2(F)CCNC2)c1F (centres unmarked) (as salt: hydrochloric acid salt) [Example 23, 3-(2,3-DIFLUOROPHENYL)-3-FLUOROPYRROLIDINE] | 136
23 | CCCN1CCC(O)(c2cc(F)cc(F)c2)C1 (centres unmarked) (as salt: fumaric acid salt) [Example 9, 3-(3,5-DIFLUOROPHENYL)-1-PROPYLPYRROLIDIN-3-OL] | 136 to 137
24 | COCCN1CCC(O)(c2cc(F)cc(F)c2)C1 (single isomer, unassigned; (-)) (as salt: oxalic acid salt) [Example 45, (−)-3-(3,5-DIFLUOROPHENYL)-1-(2-METHOXYETHYL)PYRROLIDIN-3-OL] | 130 to 131
25 | COCCN1CCC(O)(c2cccc(F)c2F)C1 (single isomer, unassigned; (+)) (as salt: oxalic acid salt) [Example 60, (+)-3-(2,3-DIFLUOROPHENYL)-1-(2-METHOXYETHYL)PYRROLIDIN-3-OL] | 149 to 150
26 | CCN1CCC(O)(c2cc(F)cc(F)c2)C1 (single isomer, unassigned; (+)) (as salt: oxalic acid salt) [Example 2, (+)-3-(3,5-DIFLUOROPHENYL)-1-ETHYLPYRROLIDIN-3-OL] | 137 to 139
27 | OC1(c2cccc(F)c2F)CCN(CCC(F)(F)F)C1 (single isomer, unassigned; (-)) (as salt: oxalic acid salt) [Example 48, (−)-3-(2,3-DIFLUOROPHENYL)-1-(3,3,3-TRIFLUOROPROPYL)PYRROLIDIN-3-OL] | 144
28 | FC1(c2cc(Cl)cc(Cl)c2)CCNC1 (centres unmarked) (as salt: hydrochloric acid salt) [Example 14, 3-(3,5-DICHLOROPHENYL)-3-FLUOROPYRROLIDINE] | 201 to 202
29 | CCN1CCC(O)(c2cccc(Cl)c2Cl)C1 (centres unmarked) (as salt: oxalic acid salt) | 206 to 207
30 | CCN1CCC(O)(c2cccc(Cl)c2F)C1 (centres unmarked) (as salt: fumaric acid salt) | 142 to 145.5
31 | CCCN1CCC(O)(c2ccc(F)c(F)c2)C1 (centres unmarked) (as salt: oxalic acid salt) [Example 7, 3-(3,4-DIFLUOROPHENYL)-1-PROPYLPYRROLIDIN-3-OL] | 131 to 132
32 | C=CCN1CCC(O)(c2cc(F)cc(F)c2)C1 (centres unmarked) (as salt: oxalic acid salt) [Example 55] | 104 to 105
33 | CN1CCC(O)(c2cccc(F)c2F)C1 (centres unmarked) (as salt: oxalic acid salt) [Example 59] | 131 to 132
34 | CCN1CCC(O)(c2cc(F)cc(F)c2)C1 (single isomer, unassigned; (-)) (as salt: oxalic acid salt) [Example 1, (−)-3-(3,5-DIFLUOROPHENYL)-1-ETHYLPYRROLIDIN-3-OL] | 111 to 112
35 | CCCN1CCC(O)(c2ccc(F)c(F)c2)C1 (centres unmarked) (as salt: fumaric acid salt) [Example 27] | 127 to 129
36 | OC1(c2cccc(F)c2F)CCN(CC2CC2)C1 (centres unmarked) (as salt: oxalic acid salt) [Example 49] | 172.8
37 | CN1CCC(O)(c2cc(F)cc(Cl)c2)C1 (centres unmarked) (as salt: oxalic acid salt) [Example 66] | 114 to 115
38 | CN1CCC(O)(c2ccc(F)c(F)c2)C1 (centres unmarked) (as salt: fumaric acid salt) | 164 to 166
39 | OC1(c2cccc(F)c2F)CCN(CC2CC2)C1 (centres unmarked) (as salt: oxalic acid salt) [Example 64] | 170 to 171
40 | CC(C)CN1CCC(O)(c2cc(F)cc(F)c2)C1 (centres unmarked) (as salt: oxalic acid salt) [Example 46] | 162 to 163

Row | SMILES | melting point [°C]
41 | CN1CCC(O)(c2cc(F)cc(Cl)c2)C1 (centres unmarked) (as salt: oxalic acid salt) [Example 65] | 117 to 118
42 | CN1CCC(O)(c2cc(F)cc(Cl)c2)C1 (centres unmarked) (as salt: fumaric acid salt) | 129 to 131
43 | CCN1CCC(O)(c2cccc(F)c2F)C1 (single isomer, unassigned; (-)) (as salt: oxalic acid salt) [Example 32, (−)-3-(2,3-DIFLUOROPHENYL)-1-ETHYLPYRROLIDIN-3-OL] | 118 to 120
44 | CN1CCC(O)(c2ccc(F)cc2F)C1 (centres unmarked) (as salt: oxalic acid salt) | 117 to 119
45 | CCCCN1CCC(O)(c2cc(F)cc(F)c2)C1 (centres unmarked) (as salt: oxalic acid salt) | 146 to 147
46 | CCCN1CCC(O)(c2cccc(F)c2F)C1 (centres unmarked) (as salt: fumaric acid salt) [Example 33] | 97 to 100
47 | CN1CCC(F)(c2cc(F)cc(F)c2)C1 (centres unmarked) (as salt: oxalic acid salt) [Example 11, 3-(3,5-DIFLUOROPHENYL)-3-FLUORO-1-METHYLPYRROLIDINE] | 128 to 129
48 | Fc1cc(F)cc(C2(F)CCNC2)c1 (centres unmarked) (as salt: oxalic acid salt) [Example 13, 3-(3,5-DIFLUOROPHENYL)-3-FLUOROPYRROLIDINE] | 176 to 177
49 | CCN1CCC(O)(c2ccc(F)c(Cl)c2)C1 (centres unmarked) (as salt: fumaric acid salt) [Example 3, 3-(3-CHLORO-4-FLUOROPHENYL)-1-ETHYLPYRROLIDIN-3-OL] | 157 to 158
50 | CCN1CCC(O)(c2cc(F)cc(Cl)c2)C1 (centres unmarked) (as salt: oxalic acid salt) [Example 31] | 117 to 118
51 | CCN1CCC(O)(c2ccc(F)c(F)c2)C1 (centres unmarked) (as salt: fumaric acid salt) [Example 12, 3-(3,4-DIFLUOROPHENYL)-1-ETHYLPYRROLIDIN-3-OL] | 157 to 158
52 | CCCCN1CCC(O)(c2cccc(F)c2F)C1 (centres unmarked) (as salt: oxalic acid salt) [Example 58] | 157 to 158
53 | CN1CCC(O)(c2cc(F)cc(F)c2)C1 (centres unmarked) (as salt: oxalic acid salt) [Example 18] | 159 to 162
54 | CCN1CCC(O)(c2cccc(Cl)c2F)C1 (centres unmarked) (as salt: oxalic acid salt) [Example 37] | 72 to 74
55 | CCN1CCC(O)(c2cccc(F)c2F)C1 (centres unmarked) (as salt: fumaric acid salt) [Example 4, 3-(2,3-DIFLUOROPHENYL)-1-ETHYLPYRROLIDIN-3-OL] | 119 to 120
56 | CN1CCC(O)(c2cc(F)cc(F)c2)C1 (centres unmarked) (as salt: oxalic acid salt) [Example 52] | 150
57 | CC(C)N1CCC(O)(c2ccc(F)c(F)c2)C1 (centres unmarked) (as salt: fumaric acid salt) | 143 to 147
58 | COCCN1CCC(O)(c2cccc(F)c2F)C1 (single isomer, unassigned; (-)) (as salt: oxalic acid salt) [Example 42, (−)-3-(2,3-DIFLUOROPHENYL)-1-(2-METHOXYETHYL)PYRROLIDIN-3-OL] | 146.7
59 | COCCN1CCC(O)(c2cc(F)cc(F)c2)C1 (single isomer, unassigned; (+)) (as salt: oxalic acid salt) [Example 54, (+)-3-(3,5-DIFLUOROPHENYL)-1-(2-METHOXYETHYL)PYRROLIDIN-3-OL] | 131 to 132

Source: patent US8188301B2, “Disubstituted phenylpyrrolidines as modulators of cortical catecholaminergic neurotransmission” (NSAB, Filial af NeuroSearch Sweden AB, Sverige, priority 2007, dated 2012)
